From PMC10364322, “Evaluation of chronic drug-induced electrophysiological and cytotoxic effects using human-induced pluripotent stem cell-derived cardiomyocytes (hiPSC-CMs)” (Frontiers in Pharmacology, 2023)
Like-named read-outs stand apart in the source and are kept apart here.

Tested on: hiPSC-CMs (iCell-Cardiomyocytes^2)
Procedure, shortened: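 Monolayers of hiPSC-CMs on fibronectin-coated MEA plates, 50 K/well, kept at 37°C, 5% CO2; compounds added in 0.1% final DMSO after 5-min baseline. Field potential and impedance parameters expressed as mean ± SD percent change from baseline; arrhythmic events noted; cytotoxicity fluorescence normalized to DMSO, Kruskal-Wallis.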

**Q.** How did the “EAD, number of observations/total well numbers” value (1 µM, 96h) turn out when COc1nc(N)nc2c1ncn2[C@@H]1O[C@H](COP(=O)(N[C@@H](C)C(=O)OCC(C)(C)C)Oc2cccc3ccccc23)[C@@H](O)[C@@]1(C)O (stereo partly shown) [BMS-986094] was run?
**A.** 0/5

**Q.** What about the “FPD (field-potential duration), % change from baseline” value (1 µM, 96h) of the same compound?
**A.** -7.9±0 %

**Q.** And the “FPDc (field-potential duration corrected by beat-rate), % change from baseline” value (from here on “FPDc … % change from baseline”) (1 µM, 96h)?
**A.** -5.5±0 %

**Q.** And the “Flat T-wave-like, number of observations/total well numbers” value (1 µM, 96h)?
**A.** 4/5

**Q.** And the “BR (beating rate), % change from baseline” value (“BR (beating rate), % change” below) (3 µM, 72h)?
**A.** 12±6 %

**Q.** And the “Beating below threshold, number of observations/total well numbers” value (3 µM, 72h)?
**A.** 0/5

**Q.** And the “Cessation of beating, number of observations/total well numbers” value (3 µM, 72h)?
**A.** 0/5

**Q.** And the “EAD, number of observations/total well numbers” value (3 µM, 72h)?
**A.** 0/5

**Q.** And the “Flat T-wave-like, number of observations/total well numbers” value (3 µM, 72h)?
**A.** 5/5

**Q.** What about the “BR (beating rate), % change” value (3 µM, 96h) of the same compound?
**A.** 20±12 %

**Q.** What about the “Beating below threshold, number of observations/total well numbers” value (3 µM, 96h) of the same compound?
**A.** 0/5

**Q.** And the “Cessation of beating, number of observations/total well numbers” value (3 µM, 96h)?
**A.** 1/5

**Q.** What about the “EAD, number of observations/total well numbers” value (3 µM, 96h) of the same compound?
**A.** 0/5

**Q.** What about the “Flat T-wave-like, number of observations/total well numbers” value (3 µM, 96h) of the same compound?
**A.** 4/5

**Q.** And the “BR (beating rate), % change” value (3 µM, 2h)?
**A.** 7±1%

**Q.** What about the “Beating below threshold, number of observations/total well numbers” value (3 µM, 2h) of the same compound?
**A.** 0/5

**Q.** What about the “Cessation of beating, number of observations/total well numbers” value (3 µM, 2h) of the same compound?
**A.** 0/5

**Q.** And the “EAD, number of observations/total well numbers” value (3 µM, 2h)?
**A.** 0/5

**Q.** What about the “FPD (field-potential duration), % change from baseline” value (3 µM, 2h) of the same compound?
**A.** -3.6±1.9%

**Q.** What about the “FPDc … % change from baseline” value (3 µM, 2h) of the same compound?
**A.** -1.6±1.8%

**Q.** What about the “Flat T-wave-like, number of observations/total well numbers” value (3 µM, 2h) of the same compound?
**A.** 0/5

**Q.** And the “BR (beating rate), % change” value (3 µM, 24h)?
**A.** 20±3 %

**Q.** What about the “Beating below threshold, number of observations/total well numbers” value (3 µM, 24h) of the same compound?
**A.** 0/5

**Q.** And the “Cessation of beating, number of observations/total well numbers” value (3 µM, 24h)?
**A.** 0/5

**Q.** And the “EAD, number of observations/total well numbers” value (3 µM, 24h)?
**A.** 0/5

**Q.** And the “FPD (field-potential duration), % change from baseline” value (3 µM, 24h)?
**A.** -17±4.9 %

**Q.** What about the “FPDc … % change from baseline” value (3 µM, 24h) of the same compound?
**A.** -11.8±5.5 %

**Q.** And the “Flat T-wave-like, number of observations/total well numbers” value (3 µM, 24h)?
**A.** 0/5

**Q.** And the “BR (beating rate), % change” value (3 µM, 48h)?
**A.** 13±3%

**Q.** And the “Beating below threshold, number of observations/total well numbers” value (3 µM, 48h)?
**A.** 0/5

**Q.** What about the “Cessation of beating, number of observations/total well numbers” value (3 µM, 48h) of the same compound?
**A.** 0/5

**Q.** And the “EAD, number of observations/total well numbers” value (3 µM, 48h)?
**A.** 0/5

**Q.** And the “FPD (field-potential duration), % change from baseline” value (3 µM, 48h)?
**A.** -0.5±0%

**Q.** What about the “FPDc … % change from baseline” value (3 µM, 48h) of the same compound?
**A.** 2.6±0%

**Q.** And the “Flat T-wave-like, number of observations/total well numbers” value (3 µM, 48h)?
**A.** 4/5

**Q.** What about the “BR (beating rate), % change” value (10 µM, 2h) of the same compound?
**A.** 4±8%

**Q.** What about the “Beating below threshold, number of observations/total well numbers” value (10 µM, 2h) of the same compound?
**A.** 0/5

**Q.** And the “Cessation of beating, number of observations/total well numbers” value (10 µM, 2h)?
**A.** 0/5

**Q.** And the “EAD, number of observations/total well numbers” value (10 µM, 2h)?
**A.** 0/5

**Q.** What about the “FPD (field-potential duration), % change from baseline” value (10 µM, 2h) of the same compound?
**A.** -5.7±2.3%

**Q.** What about the “FPDc … % change from baseline” value (10 µM, 2h) of the same compound?
**A.** -4.4±2.8 %

**Q.** And the “Flat T-wave-like, number of observations/total well numbers” value (10 µM, 2h)?
**A.** 0/5

**Q.** And the “BR (beating rate), % change” value (10 µM, 24h)?
**A.** 30±4 %

**Q.** And the “Beating below threshold, number of observations/total well numbers” value (10 µM, 24h)?
**A.** 0/5

**Q.** And the “Cessation of beating, number of observations/total well numbers” value (10 µM, 24h)?
**A.** 0/5

**Q.** What about the “EAD, number of observations/total well numbers” value (10 µM, 24h) of the same compound?
**A.** 0/5

**Q.** What about the “FPD (field-potential duration), % change from baseline” value (10 µM, 24h) of the same compound?
**A.** -24.2±3.7 %

**Q.** What about the “FPDc … % change from baseline” value (10 µM, 24h) of the same compound?
**A.** -17.1±3.6 %

**Q.** What about the “Flat T-wave-like, number of observations/total well numbers” value (10 µM, 24h) of the same compound?
**A.** 1/5

**Q.** What about the “BR (beating rate), % change” value (10 µM, 48h) of the same compound?
**A.** 24±6 %

**Q.** And the “Beating below threshold, number of observations/total well numbers” value (10 µM, 48h)?
**A.** 0/5

**Q.** What about the “Cessation of beating, number of observations/total well numbers” value (10 µM, 48h) of the same compound?
**A.** 0/5

**Q.** What about the “EAD, number of observations/total well numbers” value (10 µM, 48h) of the same compound?
**A.** 0/5

**Q.** And the “FPD (field-potential duration), % change from baseline” value (10 µM, 48h)?
**A.** -10.6±0 %

**Q.** What about the “FPDc … % change from baseline” value (10 µM, 48h) of the same compound?
**A.** -2.4±0 %

**Q.** And the “Flat T-wave-like, number of observations/total well numbers” value (10 µM, 48h)?
**A.** 4/5

**Q.** What about the “BR (beating rate), % change” value (10 µM, 72h) of the same compound?
**A.** 32±14 %

**Q.** And the “Beating below threshold, number of observations/total well numbers” value (10 µM, 72h)?
**A.** 0/5

**Q.** And the “Cessation of beating, number of observations/total well numbers” value (10 µM, 72h)?
**A.** 0/5

**Q.** What about the “EAD, number of observations/total well numbers” value (10 µM, 72h) of the same compound?
**A.** 0/5

**Q.** And the “Flat T-wave-like, number of observations/total well numbers” value (10 µM, 72h)?
**A.** 5/5

**Q.** What about the “BR (beating rate), % change” value (10 µM, 96h) of the same compound?
**A.** 29±0 %

**Q.** And the “Beating below threshold, number of observations/total well numbers” value (10 µM, 96h)?
**A.** 1/5

**Q.** What about the “Cessation of beating, number of observations/total well numbers” value (10 µM, 96h) of the same compound?
**A.** 3/5

**Q.** And the “EAD, number of observations/total well numbers” value (10 µM, 96h)?
**A.** 0/5

**Q.** And the “Flat T-wave-like, number of observations/total well numbers” value (10 µM, 96h)?
**A.** 1/5

**Q.** And the T-wave morphology (72 h and 96 h, two highest concentrations (10 and 1 µM))?
**A.** flattening of the T-wave
